Laboratory results reported in ChEMBL document CHEMBL5154787 (J Med Chem, 2022).

How the values were obtained:
[1] = molecular target: MAP kinase-interacting serine/threonine-protein kinase 1 (Homo sapiens, UniProt Q9BUB5); assay: Inhibition of MNK1 (unknown origin)
Cytochrome P450 3A4 [2] = molecular target: T1, Cytochrome P450 3A4 (Homo sapiens, UniProt P08684); assay: Time dependent inhibition of […] (unknown origin) using MDZ as substrate incubated for up to 30 mins in presence of NADPH by LC-MS/MS analysis; assay type: ADME
[3] = Metabolic stability in rat liver microsomes assessed as half life incubated at 0.5 uM for 10 mins in presence of NADPH by LC-MS/MS analysis; assay type: ADME, Microsome
[4] = molecular target: TRAF2 and NCK-interacting protein kinase (Homo sapiens, UniProt Q9UKE5); assay: Inhibition of TNIK (unknown origin)
[5] = Metabolic stability in mouse liver microsomes assessed as parent compound remaining at 0.5 uM incubated for 10 mins in presence of NADPH by LC-MS/MS analysis; assay type: ADME, Microsome; details: for remaining at 10 min, 0.5 µM: liver microsomes, read-out: Stability
[6] = Cardiotoxicity in aortic ring (unknown origin) assessed as relaxation of phenylephrine induced aortic ring contraction at 10 uM incubated for 1 hr; assay type: toxicity, tissue-based, Aorta; set-up: scale not given: the % may be the effect or the level left; details: human
[7] = Metabolic stability in mouse liver microsomes assessed as half life incubated at 0.5 uM for 10 mins in presence of NADPH by LC-MS/MS analysis; assay type: ADME, Microsome; details: for half-life at 0.5 µM: liver microsomes
Cytochrome P450 2B6 = molecular target: T2, Cytochrome P450 2B6 (Homo sapiens, UniProt P20813); assay: Inhibition of CYP2B6 (unknown origin) incubated for 10 mins in presence of NADPH by LC-MS/MS analysis; assay type: ADME
T2 sequence (P20813 whole entry): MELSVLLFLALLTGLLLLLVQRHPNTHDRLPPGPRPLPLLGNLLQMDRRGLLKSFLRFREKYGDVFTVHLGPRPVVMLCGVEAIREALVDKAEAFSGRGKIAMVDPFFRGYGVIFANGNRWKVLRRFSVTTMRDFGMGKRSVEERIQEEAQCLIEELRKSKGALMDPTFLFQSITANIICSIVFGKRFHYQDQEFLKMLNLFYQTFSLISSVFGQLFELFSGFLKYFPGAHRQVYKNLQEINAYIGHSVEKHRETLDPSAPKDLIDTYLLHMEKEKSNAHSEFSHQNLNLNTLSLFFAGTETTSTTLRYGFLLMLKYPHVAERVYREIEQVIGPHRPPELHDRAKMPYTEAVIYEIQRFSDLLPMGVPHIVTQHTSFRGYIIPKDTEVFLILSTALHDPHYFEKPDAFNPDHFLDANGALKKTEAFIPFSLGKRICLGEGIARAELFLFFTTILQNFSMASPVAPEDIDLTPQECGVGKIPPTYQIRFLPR

[8] = molecular target: AP2-associated protein kinase 1 (Mus musculus, UniProt Q3UHJ0); assay: Displacement of 3H-LP-927443 from AAK1 in C57BL6 mouse brain homogenate assessed as inhibition constant incubated for 1 hr by liquid scintillation counter analysis; assay type: tissue-based
[9] = Drug concentration in STZ-induced diabetic peripheral neuropathic mechanical allodynia in overnight fasted Sprague-Dawley rat spinal cord at 1 mg/kg, po measured at 5.75 hrs post dose; assay type: ADME, organism-based; details: read-out: Ct
[10] = Protein binding in mouse plasma assessed as unbound fraction measured after 3 hrs by LC/MS/MS analysis; assay type: ADME, cell-free
[11] = Permeability of compound at pH 7.4 incubated for 4 hrs by PAMPA assay; assay type: ADME; details: read-out: permeability
[12] = Metabolic stability in rat liver microsomes assessed as parent compound remaining at 0.5 uM incubated for 10 mins in presence of NADPH by LC-MS/MS analysis; assay type: ADME, Microsome; details: read-out: Stability
[13] = molecular target: Neuronal acetylcholine receptor subunit alpha-7 (Homo sapiens, UniProt P36544); assay: Inhibition of nicotinic acetylcholine receptor alpha 7 (unknown origin); assay type: toxicity
Cytochrome P450 3A4 [14] = molecular target: T1, Cytochrome P450 3A4; assay: Time dependent inhibition of […] (unknown origin) using TST as substrate incubated for up to 30 mins in presence of NADPH by LC-MS/MS analysis; assay type: ADME
[15] = Oral bioavailability in rat at 3 mg/kg or 2 mg/kg,iv; assay type: ADME, organism-based; details: in vivo
[16] = Protein binding in rat plasma assessed as unbound fraction measured after 3 hrs by LC/MS/MS analysis; assay type: ADME, cell-free
[17] = Plasma concentration in STZ-induced diabetic peripheral neuropathic mechanical allodynia in overnight fasted Sprague-Dawley rat at 1 mg/kg, po measured at 5.75 hrs post dose; assay type: ADME, organism-based
[18] = Inhibition of calcium channel (unknown origin); set-up: species or system Homo sapiens
[19] = molecular target: Voltage-gated inwardly rectifying potassium channel KCNH2 (Homo sapiens, UniProt Q12809); assay: Inhibition of human ERG by patch clamp assay; assay type: toxicity
[20] = Protein binding in human plasma assessed as unbound fraction measured after 3 hrs by LC/MS/MS analysis; assay type: ADME, cell-free
Cytochrome P450 2C9 = Cytochrome P450 2C9 (Homo sapiens, UniProt P11712); assay: Inhibition of CYP2C9 (unknown origin) incubated for 10 mins in presence of NADPH by LC-MS/MS analysis; assay type: ADME
[21] = molecular target: Sodium-dependent noradrenaline transporter (Homo sapiens, UniProt P23975); assay: Inhibition of NET (unknown origin); assay type: toxicity
[22] = Ratio of drug concentration in spinal cord to plasma in STZ-induced diabetic peripheral neuropathic mechanical allodynia in overnight fasted Sprague-Dawley rat at 1 mg/kg, po measured at 5.75 hrs post dose; assay type: ADME, organism-based
Cytochrome P450 3A4 [23] = molecular target: T1, Cytochrome P450 3A4; assay: Time dependent inhibition of […] (unknown origin) using BFC as substrate incubated for 30 mins in presence of NADPH by LC-MS/MS analysis; assay type: ADME
[24] = Inhibition of cardiac sodium channel (unknown origin); set-up: species or system Homo sapiens
[25] = Metabolic stability in human liver microsomes assessed as parent compound remaining at 0.5 uM incubated for 10 mins in presence of NADPH by LC-MS/MS analysis; assay type: ADME, Microsome; details: read-out: Stability
[26] = Genotoxicity in Salmonella typhimurium by Ames test; assay type: toxicity; details: salmonella enterica subsp. enterica serovar typhimurium
Cytochrome P450 3A4 [27] = molecular target: T1, Cytochrome P450 3A4; assay: Time dependent inhibition of […] (unknown origin) using BFC as substrate incubated for 5 mins in presence of NADPH by LC-MS/MS analysis; assay type: ADME
[28] = molecular target: Myosin light chain kinase 2, skeletal/cardiac muscle (Homo sapiens, UniProt Q9H1R3); assay: Inhibition of MYLK2 (unknown origin)
[29] = Drug concentration in CCI induced tactile allodynia in Sprague-Dawley rat spinal cord at 3 mg/kg, po measured at 7.5 hrs post dose; assay type: ADME, organism-based; details: read-out: Ct
Rattus norvegicus = assay: Analgesic activity in CCI induced tactile allodynia in Sprague-Dawley rat assessed as reduction in pain response at 3 mg/kg, po by Hargreaves test relative to control; assay type: functional; set-up: scale not given: the % may be the effect or the level left
[30] = molecular target: Rho-associated protein kinase 2 (Homo sapiens, UniProt O75116); assay: Inhibition of ROCK2 (unknown origin)
[31] = Plasma concentration in CCI induced tactile allodynia in Sprague-Dawley rat at 3 mg/kg, po measured at 7.5 hrs post dose; assay type: ADME, organism-based
[32] = Ratio of drug concentration in spinal cord to plasma in CCI induced tactile allodynia in Sprague-Dawley rat at 3 mg/kg, po measured at 7.5 hrs post dose; assay type: ADME, organism-based
[33] = Genotoxicity in chinese hamster CHO cells without metabolic activation system at 59 uM by IVMN assay; assay type: toxicity, cell-based, Cricetulus griseus
[34] = Solubility of compound at pH 3 measured after 24 hrs; assay type: physicochemical; details: buffer

Chain of Cytochrome P450 2C9 (P11712 whole entry): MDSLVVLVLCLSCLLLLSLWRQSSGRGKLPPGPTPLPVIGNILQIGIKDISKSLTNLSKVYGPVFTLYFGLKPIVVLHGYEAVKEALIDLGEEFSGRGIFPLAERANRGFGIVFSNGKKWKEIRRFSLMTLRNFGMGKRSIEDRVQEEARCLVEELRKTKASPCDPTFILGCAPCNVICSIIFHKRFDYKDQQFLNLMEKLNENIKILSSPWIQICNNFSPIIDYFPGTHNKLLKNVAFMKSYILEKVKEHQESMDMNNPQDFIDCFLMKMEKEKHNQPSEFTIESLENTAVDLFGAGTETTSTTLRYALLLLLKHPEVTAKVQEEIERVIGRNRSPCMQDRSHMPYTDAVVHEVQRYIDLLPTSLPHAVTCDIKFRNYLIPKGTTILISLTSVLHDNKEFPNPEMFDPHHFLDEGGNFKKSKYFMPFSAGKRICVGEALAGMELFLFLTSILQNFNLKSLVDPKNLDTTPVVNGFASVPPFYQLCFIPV
Chain of AP2-associated protein kinase 1 (Q3UHJ0 whole entry): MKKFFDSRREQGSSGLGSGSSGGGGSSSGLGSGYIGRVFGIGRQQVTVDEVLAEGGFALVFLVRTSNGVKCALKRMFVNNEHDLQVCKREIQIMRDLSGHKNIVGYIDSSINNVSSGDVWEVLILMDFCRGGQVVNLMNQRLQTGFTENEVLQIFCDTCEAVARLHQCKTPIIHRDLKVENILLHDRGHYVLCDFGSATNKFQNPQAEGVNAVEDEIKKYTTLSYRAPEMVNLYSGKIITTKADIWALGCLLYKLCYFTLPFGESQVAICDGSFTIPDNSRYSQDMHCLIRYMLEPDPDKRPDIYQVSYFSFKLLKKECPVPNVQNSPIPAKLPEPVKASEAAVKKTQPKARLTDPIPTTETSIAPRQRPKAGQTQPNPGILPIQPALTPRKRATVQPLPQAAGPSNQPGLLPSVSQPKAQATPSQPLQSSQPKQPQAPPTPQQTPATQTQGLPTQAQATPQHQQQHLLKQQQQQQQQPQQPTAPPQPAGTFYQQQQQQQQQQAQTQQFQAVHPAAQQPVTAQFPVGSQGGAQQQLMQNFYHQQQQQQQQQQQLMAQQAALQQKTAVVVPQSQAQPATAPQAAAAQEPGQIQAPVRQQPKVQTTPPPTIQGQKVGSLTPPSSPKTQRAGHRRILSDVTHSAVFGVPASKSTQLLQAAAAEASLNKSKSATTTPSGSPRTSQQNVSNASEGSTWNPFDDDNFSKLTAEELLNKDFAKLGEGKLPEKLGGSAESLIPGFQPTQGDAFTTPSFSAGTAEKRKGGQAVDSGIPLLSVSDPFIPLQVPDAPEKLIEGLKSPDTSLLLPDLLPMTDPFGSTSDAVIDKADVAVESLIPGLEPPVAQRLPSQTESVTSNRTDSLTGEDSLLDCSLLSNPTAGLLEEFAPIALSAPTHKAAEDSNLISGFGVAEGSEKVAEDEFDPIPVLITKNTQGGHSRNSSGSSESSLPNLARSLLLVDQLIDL
T1 sequence (P08684 whole entry): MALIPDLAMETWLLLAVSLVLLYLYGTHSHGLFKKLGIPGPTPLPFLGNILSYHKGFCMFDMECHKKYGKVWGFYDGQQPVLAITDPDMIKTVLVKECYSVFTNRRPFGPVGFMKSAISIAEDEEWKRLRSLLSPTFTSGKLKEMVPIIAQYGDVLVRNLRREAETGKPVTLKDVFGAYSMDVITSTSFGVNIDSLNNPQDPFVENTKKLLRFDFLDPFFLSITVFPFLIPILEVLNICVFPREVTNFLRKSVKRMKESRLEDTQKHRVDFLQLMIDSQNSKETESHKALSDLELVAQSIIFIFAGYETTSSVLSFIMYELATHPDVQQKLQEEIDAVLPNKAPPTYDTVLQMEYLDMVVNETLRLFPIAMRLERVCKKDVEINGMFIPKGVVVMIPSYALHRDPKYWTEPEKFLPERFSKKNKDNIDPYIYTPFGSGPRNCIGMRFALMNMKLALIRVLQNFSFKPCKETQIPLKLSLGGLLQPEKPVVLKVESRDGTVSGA
Chain of Sodium-dependent noradrenaline transporter (P23975 whole entry): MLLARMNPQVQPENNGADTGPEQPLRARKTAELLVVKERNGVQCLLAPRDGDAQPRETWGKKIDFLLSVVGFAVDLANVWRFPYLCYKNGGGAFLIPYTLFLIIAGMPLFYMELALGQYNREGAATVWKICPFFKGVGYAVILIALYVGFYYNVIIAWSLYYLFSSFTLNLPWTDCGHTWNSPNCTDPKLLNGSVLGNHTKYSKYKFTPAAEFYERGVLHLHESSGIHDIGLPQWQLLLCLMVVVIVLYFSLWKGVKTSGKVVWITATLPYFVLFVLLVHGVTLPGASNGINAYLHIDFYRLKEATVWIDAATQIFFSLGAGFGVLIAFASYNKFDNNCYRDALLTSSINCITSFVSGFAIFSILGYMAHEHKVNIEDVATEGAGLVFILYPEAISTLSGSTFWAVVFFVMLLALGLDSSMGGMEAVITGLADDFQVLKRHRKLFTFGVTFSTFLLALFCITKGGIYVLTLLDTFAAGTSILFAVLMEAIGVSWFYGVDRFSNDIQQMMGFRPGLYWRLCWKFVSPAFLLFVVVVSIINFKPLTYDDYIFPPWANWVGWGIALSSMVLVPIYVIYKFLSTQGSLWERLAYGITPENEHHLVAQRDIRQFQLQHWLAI
Chain of Neuronal acetylcholine receptor subunit alpha-7 (P36544 whole entry): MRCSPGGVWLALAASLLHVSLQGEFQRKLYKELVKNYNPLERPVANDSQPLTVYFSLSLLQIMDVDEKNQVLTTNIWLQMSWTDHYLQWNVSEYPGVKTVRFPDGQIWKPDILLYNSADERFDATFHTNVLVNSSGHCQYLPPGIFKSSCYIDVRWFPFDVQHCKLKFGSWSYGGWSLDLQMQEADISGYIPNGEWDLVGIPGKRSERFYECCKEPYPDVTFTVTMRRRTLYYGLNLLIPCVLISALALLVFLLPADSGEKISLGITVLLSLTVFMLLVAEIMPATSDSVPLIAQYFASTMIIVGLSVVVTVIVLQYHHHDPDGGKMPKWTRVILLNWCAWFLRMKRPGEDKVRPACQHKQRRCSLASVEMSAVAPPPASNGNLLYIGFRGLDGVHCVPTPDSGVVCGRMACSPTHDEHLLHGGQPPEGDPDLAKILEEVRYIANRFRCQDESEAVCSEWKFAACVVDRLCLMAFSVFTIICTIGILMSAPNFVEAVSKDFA
Chain of MAP kinase-interacting serine/threonine-protein kinase 1 (Q9BUB5 whole entry): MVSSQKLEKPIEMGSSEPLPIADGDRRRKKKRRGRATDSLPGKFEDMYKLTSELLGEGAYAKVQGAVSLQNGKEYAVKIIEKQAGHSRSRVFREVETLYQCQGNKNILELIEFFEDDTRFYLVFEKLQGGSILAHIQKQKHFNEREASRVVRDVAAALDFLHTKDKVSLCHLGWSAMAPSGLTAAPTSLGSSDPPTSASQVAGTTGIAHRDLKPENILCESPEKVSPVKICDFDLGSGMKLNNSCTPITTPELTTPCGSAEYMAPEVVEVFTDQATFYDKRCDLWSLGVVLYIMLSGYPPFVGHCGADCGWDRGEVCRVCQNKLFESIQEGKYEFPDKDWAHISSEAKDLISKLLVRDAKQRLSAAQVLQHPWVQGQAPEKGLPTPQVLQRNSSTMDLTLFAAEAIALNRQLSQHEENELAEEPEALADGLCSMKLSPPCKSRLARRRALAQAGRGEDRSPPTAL
Chain of Myosin light chain kinase 2, skeletal/cardiac muscle (Q9H1R3 whole entry): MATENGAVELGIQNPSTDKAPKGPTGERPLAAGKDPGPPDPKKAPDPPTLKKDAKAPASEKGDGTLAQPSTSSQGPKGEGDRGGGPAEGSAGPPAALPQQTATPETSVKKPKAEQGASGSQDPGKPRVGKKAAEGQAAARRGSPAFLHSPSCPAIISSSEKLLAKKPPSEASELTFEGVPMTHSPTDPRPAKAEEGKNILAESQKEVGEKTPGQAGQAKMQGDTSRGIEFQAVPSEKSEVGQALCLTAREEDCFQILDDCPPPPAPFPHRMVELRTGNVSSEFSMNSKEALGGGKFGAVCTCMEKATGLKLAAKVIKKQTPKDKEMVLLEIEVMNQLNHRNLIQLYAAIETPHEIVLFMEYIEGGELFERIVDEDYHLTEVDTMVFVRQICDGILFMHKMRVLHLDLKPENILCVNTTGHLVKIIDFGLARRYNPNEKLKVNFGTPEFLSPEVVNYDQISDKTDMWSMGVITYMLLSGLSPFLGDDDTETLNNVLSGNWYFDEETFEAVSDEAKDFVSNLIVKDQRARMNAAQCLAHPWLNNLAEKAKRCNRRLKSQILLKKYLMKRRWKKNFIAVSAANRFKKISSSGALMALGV

IC50 [1] [µM] | IC50 (Cytochrome P450 3A4 [2]) [µM] | half-life at 0.5 µM [3] [h] | remaining at 10 min, 0.5 µM [5] [%] | half-life at 0.5 µM [7] [h] | IC50 (Cytochrome P450 2B6) [µM] | Ki [8] [nM] | concentration at 5.75 h [9] [nM] | fraction unbound at 3 h [10] | Papp at 4 h [11] [×10⁻⁶ cm/s] | remaining at 10 min, 0.5 µM [12] [%] | IC50 (Cytochrome P450 3A4 [14]) [µM] | bioavailability [15] [%] | fraction unbound at 3 h [16] | IC50 [18] [µM] | fraction unbound at 3 h [20] | IC50 (Cytochrome P450 2C9) [µM] | remaining at 10 min, 0.5 µM [25] [%] | Structure (SMILES) | Activity [6] [%] | IC50 [13] [µM] | other results
0.26 | > 40 | 1.27 | 89 | > 2 | > 20 | 0.05 | 213 | 0.065 | 45.8 | 85 | > 40 | 22 | 0.122 | 18.8 | 0.125 | > 20 | 89 | CC(C)C[C@](C)(N)COc1cnc(-c2ccnc(C(F)F)c2)cc1C(F)F | 58 | 4 | IC50 [4]: 2 µM; concentration at 5.75 h [17]: 80 nM; IC50 [19]: 1.3 µM; IC50 [21]: 1.8 µM; Kp at 5.75 h [22]: 2.7; IC50 (Cytochrome P450 3A4 [23]): > 20 µM; IC50 [24]: 5.4 µM; Activity [26]: Non-Toxic; IC50 (Cytochrome P450 3A4 [27]): > 20 µM; IC50 [28]: 0.45 µM
– | > 40 | 0.7 | – | – | > 20 | 0.21 | – | 0.049 | 69.7 | 83 | > 40 | 77 | 0.105 | 35.3 | 0.115 | > 20 | 92 | COC(=O)Nc1cc(-c2cnc(OC[C@@](C)(N)CC(C)C)c(C)c2)ccn1 | 66 | 4.5 | concentration at 7.5 h [29]: 720 nM; Stability ([5]; microsomes, 10 min, 0.5 µM): 68%; Activity (Rattus norvegicus): 60%; t1/2 ([7]; microsomes, 10 min, 0.5 µM): 0.9 h; IC50 [30]: 1.3 µM; concentration at 7.5 h [31]: 140 nM; Kp at 7.5 h [32]: 5.1; IC50 [21]: 5 µM; IC50 (Cytochrome P450 3A4 [23]): > 20 µM; IC50 (Cytochrome P450 3A4 [27]): > 20 µM
0.19 | – | 1.42 | 93 | 1.53 | > 20 | 0.29 | 213 | – | 86.4 | 95 | – | 94 | 0.225 | 16 | 0.18 | > 20 | 95 | COC(=O)Nc1cc(-c2ccc(OC[C@@](C)(N)CC(C)C)c(C)n2)ccn1 | 36 | – | concentration at 7.5 h [29]: 4400 nM; Activity (Rattus norvegicus): 80%; Activity [33]: Non-Toxic; concentration at 7.5 h [31]: 500 nM; Kp at 7.5 h [32]: 8.8; concentration at 5.75 h [17]: 80 nM; IC50 [19]: 5.9 µM; solubility at 24 h [34]: > 1000 µg/mL; Kp at 5.75 h [22]: 2.7; Activity [26]: Non-Toxic; IC50 [28]: 1.8 µM
